# Source: ChEMBL document CHEMBL1158942, “Novel meroterpenoids from Cystoseira mediterranea: use of the crown-gall bioassay as a primary screen for lipophilic antineoplastic agents” (1991)
# Test system: Agrobacterium tumefaciens
# Assay: Antitumor activity against Agrobacterium tumefaciens B6-induced crown gall tumor in potato tubers at 10000 uM after 15 to 20 days by crown gall tumor potato disk test
# Assay type: functional
row,SMILES,inhibition at 10000 µM [%]
1,C/C(=C\Cc1cc(O)cc(C)c1O)CC(=O)C[C@@]1(C)CC2C(O)=CC(O)=C[C@]1(C)C2(C)C [MEDITERRANEOL A],88
2,Cc1cc(O)cc2c1OC(C)(CC1=C3C[C@@H](O)C(C)(C)OC1C(C)(C)CCCC3=O)CC2 (stereo partly drawn) [CYSTOSEIROL],73
3,COc1cc(C)c(O)c(C/C=C(\C)CC(=O)CCCC(=O)C=C(C)C)c1 [MEDITERRANENONE],76
